In the NIST ThermoML archive (doi:10.1021/je1005533):

What was measured:
[1] = refractive index (other wavelength) (dimensionless); settings: 101.3 kPa, Liquid, Wavelength=632.8 nm, Standard Abbe refractometry
[2] = refractive index (other wavelength) (dimensionless); xn = mol fraction of the nth substance listed; settings: 101.3 kPa, Liquid, Wavelength=632.8 nm, Standard Abbe refractometry

CCCCCCCCCCCCCCCCCC [octadecane]
Settings	refractive index
[1], 327.67 K	1.4231

COC(=O)OC [dimethyl carbonate]
[1]
Settings	refractive index
308.25 K	1.3607
309.26 K	1.3602
310.32 K	1.3597
311.36 K	1.3592
312.44 K	1.3587
313.49 K	1.3582
314.53 K	1.3577
315.56 K	1.3572
316.66 K	1.3567
317.67 K	1.3562
318.72 K	1.3557
327.67 K	1.3514

CCCCCCCCCCCCCCCC [hexadecane]
[1]
Settings	refractive index
308.21 K	1.427
309.24 K	1.4265
310.21 K	1.4261
311.24 K	1.4256
312.3 K	1.4252
313.34 K	1.4248
314.44 K	1.4244
315.54 K	1.4239
316.55 K	1.4235
317.56 K	1.4231
318.61 K	1.4226

CCCCCCCCCCCCCCCCCC [octadecane] + COC(=O)OC
[2], 327.67 K
Settings	refractive index
x2 = 0	1.4231
x2 = 0.099	1.4203
x2 = 0.202	1.4169
x2 = 0.299	1.4132
x2 = 0.399	1.4089
x2 = 0.509	1.4034
x2 = 0.601	1.3979
x2 = 0.701	1.3907
x2 = 0.807	1.3806
x2 = 0.902	1.3685

COC(=O)OC [dimethyl carbonate] + CCCCCCCCCCCCCCCCCC
Settings	refractive index
[2], 327.67 K, x1 = 1	1.3514

COC(=O)OC [dimethyl carbonate] + CCCCCCCCCCCCCCCC
[2], x1 = 1
Settings	refractive index
308.25 K	1.3607
309.26 K	1.3602
310.32 K	1.3597
311.36 K	1.3592
312.44 K	1.3587
313.49 K	1.3582
314.53 K	1.3577
315.56 K	1.3572
316.66 K	1.3567
317.67 K	1.3562
318.72 K	1.3557
